Measured values published in patent US20060111381A1, “Amidine compounds” (priority 2002, published 2006).
Several values for one entry are separate records, joined by “and”; a condition that tells them apart may be missing. Equal values may be shown once.

What was measured:
human μ-opiate receptor = target: T1, human μ-opiate receptor (Homo sapiens, UniProt P35372); experiment: In vitro opiate receptor radioligand binding assay (MDS 260410); settings: test compound 10 μM, read-out: Percentage Inhibition of Radioligand Binding
T1 construct: purchased MDS Pharma Services 260410
T1 sequence (P35372 whole entry): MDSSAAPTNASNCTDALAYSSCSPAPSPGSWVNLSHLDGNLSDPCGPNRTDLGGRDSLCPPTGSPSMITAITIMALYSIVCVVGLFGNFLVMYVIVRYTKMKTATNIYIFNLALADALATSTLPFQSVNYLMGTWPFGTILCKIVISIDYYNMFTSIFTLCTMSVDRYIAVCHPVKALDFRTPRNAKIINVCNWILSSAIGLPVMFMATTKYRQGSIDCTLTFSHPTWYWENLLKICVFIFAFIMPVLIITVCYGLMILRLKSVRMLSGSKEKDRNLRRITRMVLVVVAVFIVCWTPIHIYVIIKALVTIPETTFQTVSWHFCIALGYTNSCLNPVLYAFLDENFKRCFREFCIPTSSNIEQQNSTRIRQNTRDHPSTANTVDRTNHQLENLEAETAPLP
Protocol: (§1) To characterise the target specificity of the compounds, KRS-6-41, KRS-6-48 and KRS-6-51 were tested at a concentration of 10 μM for their ability to inhibit the binding of a radioligand to human δ-, κ-, or μ-opiate receptors in vitro using commercially available assays (MDS Pharma Services; assay catalogue numbers 260110, 260210 and 260410 respectively).

ICR mice [1] = experiment: Phenylquinone-induced writhing model in mice (writhes counted in following 5-10 minute period); assay type: in vivo; settings: for No. of Writhings, Individual: individual mice; for % Inhibition: relative to vehicle group
Protocol: (§2) Testing on compound KRS-6-48 was carried out under contract by MDS Services—Taiwan Ltd. KRS-6-48 was evaluated for possible analgesic activity in the phenylquinone-induced writhing model in mice (Siegmund et al, 1957). A serial 2-fold dosage variance was used in the test, from 128 mg/kg to 1 mg/kg (8 doses in total). Groups of 3 male or female ICR mice weighing 22±2 g were employed. Variant doses (1, 2, 4, 8, 16, 32, 64 and 128 mg/kg) of test substances were administered intraperitoneally (IP). A vehicle of 2% Tween 80 in 0.9% NaCl was used for the intraperitoneal injection. The control group received vehicle alone. […] A reduction in the number of writhes by 50 percent or more (≧50%) relative to the vehicle-treated group indicated possible analgesic activity.
Testing on compounds KRS-6-41, KRS-6-51, and KRS-6-71 was also carried out under contract by MDS Services—Taiwan Ltd. The study was designed to evaluate the effects of the compounds as analgesics in the phenylquinone-induced writhing assay described in detail in Example 10 (Siegmund et al, 1957).
as §2, with “In each case, a” for “Testing on compound KRS-6-48 was carried out under contract by MDS Services—Taiwan Ltd. KRS-6-48 was evaluated for possible analgesic activity in the phenylquinone-induced writhing model in mice (Siegmund et al, 1957). A”

human δ-opiate receptor = target: T2, human δ-opiate receptor (Homo sapiens, UniProt P41143); experiment: In vitro opiate receptor radioligand binding assay (MDS 260110); settings: test compound 10 μM, read-out: Percentage Inhibition of Radioligand Binding
T2 construct: purchased MDS Pharma Services 260110
T2 sequence (P41143 whole entry): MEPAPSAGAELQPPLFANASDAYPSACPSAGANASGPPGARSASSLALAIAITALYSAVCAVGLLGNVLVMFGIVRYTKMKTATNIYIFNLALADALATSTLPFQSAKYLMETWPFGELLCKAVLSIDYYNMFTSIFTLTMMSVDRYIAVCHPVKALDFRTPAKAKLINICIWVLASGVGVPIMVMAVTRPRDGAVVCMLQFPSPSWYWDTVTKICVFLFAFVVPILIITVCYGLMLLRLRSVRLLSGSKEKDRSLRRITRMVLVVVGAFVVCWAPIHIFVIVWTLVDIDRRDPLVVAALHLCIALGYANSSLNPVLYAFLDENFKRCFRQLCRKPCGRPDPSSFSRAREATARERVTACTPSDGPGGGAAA
Protocol: as §1

ICR mice [2] = experiment: Straub tail behaviour (indicator of CNS activity) in writhing-study mice
human κ-opiate receptor = target: T3, human κ-opiate receptor (Homo sapiens, UniProt P41145); experiment: In vitro opiate receptor radioligand binding assay (MDS 260210); settings: test compound 10 μM, read-out: Percentage Inhibition of Radioligand Binding
T3 construct: purchased MDS Pharma Services 260210
T3 sequence (P41145 whole entry): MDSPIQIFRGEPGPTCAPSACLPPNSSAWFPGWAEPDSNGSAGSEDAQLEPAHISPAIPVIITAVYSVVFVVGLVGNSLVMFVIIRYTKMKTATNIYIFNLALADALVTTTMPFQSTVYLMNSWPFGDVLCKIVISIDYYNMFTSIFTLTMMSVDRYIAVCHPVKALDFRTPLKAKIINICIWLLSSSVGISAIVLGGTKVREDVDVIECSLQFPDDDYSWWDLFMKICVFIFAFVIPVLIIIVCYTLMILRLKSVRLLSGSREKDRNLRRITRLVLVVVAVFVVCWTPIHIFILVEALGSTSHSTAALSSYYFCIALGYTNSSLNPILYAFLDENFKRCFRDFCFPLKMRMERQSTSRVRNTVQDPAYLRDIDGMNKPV
Protocol: as §1

ICR mice [3] = experiment: Deaths and adverse signs observed in writhing-study mice; assay type: in vivo; settings: 128 mg/kg IP
Protocol: as §2
as §2, with “In each case, a” for “Testing on compound KRS-6-48 was carried out under contract by MDS Services—Taiwan Ltd. KRS-6-48 was evaluated for possible analgesic activity in the phenylquinone-induced writhing model in mice (Siegmund et al, 1957). A”

ICR mice [4] = experiment: Phenylquinone-induced writhing model in mice, KRS-6-98 study (writhes counted in following 10-15 minute period); assay type: in vivo; settings: for Number of Writhings, Average / Number of Writhings, Individual / % Inhibition: 10-15 minute period; for Number of Writhings, Individual: individual mice; for % Inhibition: relative to vehicle group
Protocol: Testing of compound KRS-6-98 was carried out under contract by MDS Pharma Services—Taiwan. The study was essentially the same as that set out in Examples 12 and 13, and was designed to evaluate the effect of the compound as an analgesic in the phenylquinone-induced writhing assay described in detail in Example 10 (Siegmund et al, 1957).
A serial two-fold dosage variance was used in the test, from 128 mg/kg to 1 mg/kg (8 doses in total). Twenty six groups of 3 male or female ICR mice weighing 22±2 g were employed. The variant doses of the test substance were administered intraperitoneally (IP). A vehicle of 2% Tween 80 in 0.9% NaCl was used for the intraperitoneal injection. The control group received the vehicle alone. […] A reduction of the number of writhes by 50% or more (≧50%) relative to the vehicle-treated group indicate a possible analgesic activity.

CC(=Nc1ccccc1)NCCCN1CC[C@]23c4c5ccc(O)c4O[C@H]2[C@@H](O)C=CC3[C@H]1C5 (stereo partly drawn) [KRS-6-51, (5α,6α)-7,8-didehydro-4,5-epoxy-17-((N-phenylacetamidino)-propyl)morphinan, 3,6-diol]
inhibition at 10 µM (human μ-opiate receptor): 97%
No. of Writhings, Average (ICR mice [1]; 1 mg/kg IP): 12
No. of Writhings, Individual (ICR mice [1]; 1 mg/kg IP): 11 and 14 and 12
% Inhibition (ICR mice [1]; 1 mg/kg IP): 20%
No. of Writhings, Average (ICR mice [1]; 2 mg/kg IP): 11
No. of Writhings, Individual (ICR mice [1]; 2 mg/kg IP): 18 and 9 and 7
% Inhibition (ICR mice [1]; 2 mg/kg IP): 27%
No. of Writhings, Average (ICR mice [1]; 4 mg/kg IP): 10
No. of Writhings, Individual (ICR mice [1]; 4 mg/kg IP): 10 and 13 and 7
% Inhibition (ICR mice [1]; 4 mg/kg IP): 33%
No. of Writhings, Average (ICR mice [1]; 8 mg/kg IP): 8
No. of Writhings, Individual (ICR mice [1]; 8 mg/kg IP): 9 and 8 (2×)
% Inhibition (ICR mice [1]; 8 mg/kg IP): 47%
No. of Writhings, Average (ICR mice [1]; 16 mg/kg IP): 8
No. of Writhings, Individual (ICR mice [1]; 16 mg/kg IP): 12 and 4 and 7
% Inhibition (ICR mice [1]; 16 mg/kg IP): 47%
No. of Writhings, Average (ICR mice [1]; 32 mg/kg IP): 5
No. of Writhings, Individual (ICR mice [1]; 32 mg/kg IP): 3 and 5 and 7
% Inhibition (ICR mice [1]; 32 mg/kg IP): 67%
No. of Writhings, Average (ICR mice [1]; 64 mg/kg IP): 0
No. of Writhings, Individual (ICR mice [1]; 64 mg/kg IP): 0
% Inhibition (ICR mice [1]; 64 mg/kg IP): 100%
No. of Writhings, Individual (ICR mice [1]; 128 mg/kg IP): died and 0 (2×)
analgesic activity in writhing model (in words) (ICR mice [1]; at doses of 64 and 32 mg/kg IP): significant activity
inhibition at 10 µM (human δ-opiate receptor): 37%
Straub tail behaviour (ICR mice [2]; any doses (1 to 128 mg/kg IP)): None of the test animals exhibited Straub tail behaviour
inhibition at 10 µM (human κ-opiate receptor): 54%
test animals exhibiting tremors and edema (ICR mice [3]): 2 of the 3
test animals died within 15 minutes (ICR mice [3]; within 15 minutes): 21 of the 3

CCC(=Nc1ccc(F)cc1)NCCCN1CC[C@]23c4c5ccc(O)c4O[C@H]2[C@@H](O)C=C[C@H]3[C@H]1C5 [KRS-6-98]
Number of Writhings, Average (ICR mice [4]; 1 mg/kg IP): 10
Number of Writhings, Individual (ICR mice [4]; 1 mg/kg IP): 12 and 10 and 8
% Inhibition (ICR mice [4]; 1 mg/kg IP): 44%
Number of Writhings, Average (ICR mice [4]; 2 mg/kg IP): 7
Number of Writhings, Individual (ICR mice [4]; 2 mg/kg IP): 7 (2×) and 6
% Inhibition (ICR mice [4]; 2 mg/kg IP): 61%
Number of Writhings, Average (ICR mice [4]; 4 mg/kg IP): 7
Number of Writhings, Individual (ICR mice [4]; 4 mg/kg IP): 10 and 7 and 4
% Inhibition (ICR mice [4]; 4 mg/kg IP): 61%
Number of Writhings, Average (ICR mice [4]; 8 mg/kg IP): 5
Number of Writhings, Individual (ICR mice [4]; 8 mg/kg IP): 6 and 7 and 2
% Inhibition (ICR mice [4]; 8 mg/kg IP): 72%
Number of Writhings, Average (ICR mice [4]; 16 mg/kg IP): 4
Number of Writhings, Individual (ICR mice [4]; 16 mg/kg IP): 3 and 6 and 4
% Inhibition (ICR mice [4]; 16 mg/kg IP): 78%
Number of Writhings, Average (ICR mice [4]; 32 mg/kg IP): 0
Number of Writhings, Individual (ICR mice [4]; 32 mg/kg IP): 0
% Inhibition (ICR mice [4]; 32 mg/kg IP): 100%
Number of Writhings, Average (ICR mice [4]; 64 mg/kg IP): 0
Number of Writhings, Individual (ICR mice [4]; 64 mg/kg IP): 0
% Inhibition (ICR mice [4]; 64 mg/kg IP): 100%
Number of Writhings, Average (ICR mice [4]; 128 mg/kg IP): 0
Number of Writhings, Individual (ICR mice [4]; 128 mg/kg IP): 0
% Inhibition (ICR mice [4]; 128 mg/kg IP): 100%
analgesic activity in writhing model (in words) (ICR mice [4]; at all dose levels from 128 down to 2 mg/kg IP): significant activity

CN1CC[C@]23c4c5ccc(O)c4O[C@H]2[C@@H](O)C=C[C@H]3[C@H]1C5 [Morphine, reference compound]
No. of Writhings, Average (ICR mice [1]; 3 mg/kg IP): 0
No. of Writhings, Individual (ICR mice [1]; 3 mg/kg IP): 0
% Inhibition (ICR mice [1]; 3 mg/kg IP): 100%
test animals exhibiting Straub tail phenomenon (ICR mice [2]; 3 mg/kg IP): 2 of 3
